3 compounds from patent publication US11208412B2 (DAEGU-GYEONGBUK MEDICAL INNOVATION FOUNDATION, priority 2017, dated 2021) can be followed below.

SMILES strings stand for the structures.

Common to all, as to assay: Kinase selectivity, DiscoverX scanMAX Kinase assay panel (% control)
Holding throughout (format): binding

Assay [1] deals with T1, kinases of the scanMAX Kinase assay panel (Homo sapiens, UniProt Q16288).
T1 construct: purchased DiscoverX Co. (contract measurement) scanMAX Kinase assay panel
As to conditions: kinase TRKC; 1 uM in DMSO. In a few lines:
(§1)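 Single-point screen, 1 uM cpd in DMSO. % ctrl = (cpd − pos ctrl)/(neg ctrl − pos ctrl)×100; pos ctrl = 0%, DMSO neg ctrl = 100%. Hit cutoff <35%.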

In assay [2] the target is T2, kinases of the scanMAX Kinase assay panel (Homo sapiens, UniProt Q9Y2K2).
T2 construct: purchased DiscoverX Co. (contract measurement) scanMAX Kinase assay panel
To be noted: QSK; 1 uM. The method, boiled down: as §1

The target in assay [3] is T3, kinases of the scanMAX Kinase assay panel (Homo sapiens, UniProt O15111).
T3 construct: purchased DiscoverX Co. (contract measurement) scanMAX Kinase assay panel
T3 sequence (O15111 1-745): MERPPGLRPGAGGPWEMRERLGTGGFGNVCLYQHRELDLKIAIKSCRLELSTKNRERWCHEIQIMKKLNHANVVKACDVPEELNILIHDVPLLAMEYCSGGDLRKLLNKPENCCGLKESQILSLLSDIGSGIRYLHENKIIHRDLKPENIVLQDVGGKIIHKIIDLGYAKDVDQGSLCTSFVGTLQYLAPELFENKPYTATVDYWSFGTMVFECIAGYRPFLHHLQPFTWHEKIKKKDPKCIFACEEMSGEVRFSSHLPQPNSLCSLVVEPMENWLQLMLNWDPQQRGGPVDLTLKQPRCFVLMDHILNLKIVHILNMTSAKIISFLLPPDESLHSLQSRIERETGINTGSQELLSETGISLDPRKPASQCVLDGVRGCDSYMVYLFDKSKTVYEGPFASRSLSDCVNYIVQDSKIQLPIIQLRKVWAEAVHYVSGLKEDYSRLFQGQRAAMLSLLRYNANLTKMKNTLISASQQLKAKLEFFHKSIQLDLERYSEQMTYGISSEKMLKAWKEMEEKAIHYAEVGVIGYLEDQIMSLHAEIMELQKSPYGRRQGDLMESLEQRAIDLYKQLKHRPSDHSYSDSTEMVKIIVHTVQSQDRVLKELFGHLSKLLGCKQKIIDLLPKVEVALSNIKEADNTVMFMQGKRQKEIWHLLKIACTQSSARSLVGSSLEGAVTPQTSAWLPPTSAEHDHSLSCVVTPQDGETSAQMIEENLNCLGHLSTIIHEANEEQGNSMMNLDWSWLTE
As to conditions: IKK-alpha; 1 uM. The method, boiled down:
as §1

The target of assay [4] is T4, kinases of the scanMAX Kinase assay panel (Homo sapiens, UniProt P35916).
T4 construct: purchased DiscoverX Co. (contract measurement) scanMAX Kinase assay panel
As to conditions: FLT4; 1 uM. The method, boiled down:
as §1

In assay [5] the target is T5, kinases of the scanMAX Kinase assay panel (Homo sapiens, UniProt P24723).
T5 construct: purchased DiscoverX Co. (contract measurement) scanMAX Kinase assay panel
To be noted: PRKCH; 1 uM. In a few lines:
as §1

The target of assay [6] is T6, kinases of the scanMAX Kinase assay panel (Homo sapiens, UniProt O94768).
T6 construct: purchased DiscoverX Co. (contract measurement) scanMAX Kinase assay panel
T6 sequence (O94768 1-372): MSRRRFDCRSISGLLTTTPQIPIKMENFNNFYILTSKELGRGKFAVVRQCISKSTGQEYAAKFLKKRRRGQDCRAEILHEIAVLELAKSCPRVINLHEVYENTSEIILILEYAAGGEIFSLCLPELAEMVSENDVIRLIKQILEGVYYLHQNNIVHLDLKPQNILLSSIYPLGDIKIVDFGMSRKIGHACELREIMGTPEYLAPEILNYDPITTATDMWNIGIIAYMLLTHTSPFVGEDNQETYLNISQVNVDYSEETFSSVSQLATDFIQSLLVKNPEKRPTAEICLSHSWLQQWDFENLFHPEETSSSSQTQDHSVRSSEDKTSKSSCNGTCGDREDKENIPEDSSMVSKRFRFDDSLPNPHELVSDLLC
As to conditions: DRAK2; 1 uM. In a few lines:
as §1

Assay [7] deals with T7, kinases of the scanMAX Kinase assay panel (Homo sapiens, UniProt P36888, D835H).
T7 construct: purchased DiscoverX Co. (contract measurement) scanMAX Kinase assay panel
T7 sequence (P36888 27-993 D835H): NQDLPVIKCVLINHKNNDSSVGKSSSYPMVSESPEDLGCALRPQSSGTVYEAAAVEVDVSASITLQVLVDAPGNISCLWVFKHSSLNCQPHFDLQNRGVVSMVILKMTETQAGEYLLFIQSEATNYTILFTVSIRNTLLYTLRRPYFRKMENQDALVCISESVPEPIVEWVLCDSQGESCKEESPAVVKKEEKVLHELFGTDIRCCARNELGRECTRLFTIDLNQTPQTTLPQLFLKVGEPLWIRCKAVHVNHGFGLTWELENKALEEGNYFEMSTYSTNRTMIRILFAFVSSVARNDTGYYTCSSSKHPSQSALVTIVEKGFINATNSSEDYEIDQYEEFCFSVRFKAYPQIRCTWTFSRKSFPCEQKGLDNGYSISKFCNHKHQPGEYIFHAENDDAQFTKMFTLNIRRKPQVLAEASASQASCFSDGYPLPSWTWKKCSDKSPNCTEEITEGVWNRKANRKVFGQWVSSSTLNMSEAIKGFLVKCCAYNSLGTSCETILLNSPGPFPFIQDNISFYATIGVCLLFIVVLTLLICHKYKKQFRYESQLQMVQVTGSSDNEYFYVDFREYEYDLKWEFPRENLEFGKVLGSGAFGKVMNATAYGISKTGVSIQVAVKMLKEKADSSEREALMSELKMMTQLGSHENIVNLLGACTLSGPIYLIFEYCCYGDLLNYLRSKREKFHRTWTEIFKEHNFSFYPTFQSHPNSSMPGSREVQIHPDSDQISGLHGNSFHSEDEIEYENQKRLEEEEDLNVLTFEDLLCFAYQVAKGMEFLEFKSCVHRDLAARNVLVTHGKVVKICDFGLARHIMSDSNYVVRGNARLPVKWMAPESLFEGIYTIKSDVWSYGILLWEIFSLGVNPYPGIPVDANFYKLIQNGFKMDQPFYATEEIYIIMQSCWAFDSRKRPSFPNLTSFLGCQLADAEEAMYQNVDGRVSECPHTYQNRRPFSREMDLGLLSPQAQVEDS
As to conditions: FLT3(D835H); 1 uM. In a few lines:
as §1

T2 sequence (Q9Y2K2 whole entry): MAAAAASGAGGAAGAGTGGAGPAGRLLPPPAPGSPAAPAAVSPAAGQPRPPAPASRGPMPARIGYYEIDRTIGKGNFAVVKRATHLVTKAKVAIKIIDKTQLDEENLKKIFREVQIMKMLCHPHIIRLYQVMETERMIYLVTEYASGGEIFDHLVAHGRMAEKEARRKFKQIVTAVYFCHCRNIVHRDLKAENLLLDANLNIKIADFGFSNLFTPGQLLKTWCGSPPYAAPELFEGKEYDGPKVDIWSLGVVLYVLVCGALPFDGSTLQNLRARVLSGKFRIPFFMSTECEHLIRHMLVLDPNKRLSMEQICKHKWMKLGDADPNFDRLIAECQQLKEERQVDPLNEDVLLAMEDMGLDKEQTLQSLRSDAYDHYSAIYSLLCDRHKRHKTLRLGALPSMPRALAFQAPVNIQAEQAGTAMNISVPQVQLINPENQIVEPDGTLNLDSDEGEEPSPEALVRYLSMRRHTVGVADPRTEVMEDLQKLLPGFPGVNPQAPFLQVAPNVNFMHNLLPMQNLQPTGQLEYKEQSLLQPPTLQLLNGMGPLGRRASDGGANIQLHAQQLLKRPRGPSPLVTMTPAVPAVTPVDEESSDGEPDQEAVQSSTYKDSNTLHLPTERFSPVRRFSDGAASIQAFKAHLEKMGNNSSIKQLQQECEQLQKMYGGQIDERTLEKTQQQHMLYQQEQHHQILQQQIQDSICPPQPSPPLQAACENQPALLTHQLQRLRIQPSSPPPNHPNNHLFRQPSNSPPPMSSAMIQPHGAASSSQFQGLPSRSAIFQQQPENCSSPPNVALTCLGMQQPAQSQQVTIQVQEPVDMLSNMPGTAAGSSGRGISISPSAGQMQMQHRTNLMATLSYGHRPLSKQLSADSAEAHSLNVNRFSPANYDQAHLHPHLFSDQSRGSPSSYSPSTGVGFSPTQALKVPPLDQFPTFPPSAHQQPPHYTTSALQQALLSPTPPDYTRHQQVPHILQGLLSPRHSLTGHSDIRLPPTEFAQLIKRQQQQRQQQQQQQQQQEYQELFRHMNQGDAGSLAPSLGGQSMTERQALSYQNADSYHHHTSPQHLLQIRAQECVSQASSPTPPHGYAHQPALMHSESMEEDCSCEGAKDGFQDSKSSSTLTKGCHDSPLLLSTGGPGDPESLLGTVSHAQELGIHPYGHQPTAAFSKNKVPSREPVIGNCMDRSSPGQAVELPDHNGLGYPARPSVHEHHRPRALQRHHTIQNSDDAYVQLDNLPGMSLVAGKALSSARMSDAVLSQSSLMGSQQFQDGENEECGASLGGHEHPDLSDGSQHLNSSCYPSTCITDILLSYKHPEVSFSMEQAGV
T1 sequence (Q16288 32-839): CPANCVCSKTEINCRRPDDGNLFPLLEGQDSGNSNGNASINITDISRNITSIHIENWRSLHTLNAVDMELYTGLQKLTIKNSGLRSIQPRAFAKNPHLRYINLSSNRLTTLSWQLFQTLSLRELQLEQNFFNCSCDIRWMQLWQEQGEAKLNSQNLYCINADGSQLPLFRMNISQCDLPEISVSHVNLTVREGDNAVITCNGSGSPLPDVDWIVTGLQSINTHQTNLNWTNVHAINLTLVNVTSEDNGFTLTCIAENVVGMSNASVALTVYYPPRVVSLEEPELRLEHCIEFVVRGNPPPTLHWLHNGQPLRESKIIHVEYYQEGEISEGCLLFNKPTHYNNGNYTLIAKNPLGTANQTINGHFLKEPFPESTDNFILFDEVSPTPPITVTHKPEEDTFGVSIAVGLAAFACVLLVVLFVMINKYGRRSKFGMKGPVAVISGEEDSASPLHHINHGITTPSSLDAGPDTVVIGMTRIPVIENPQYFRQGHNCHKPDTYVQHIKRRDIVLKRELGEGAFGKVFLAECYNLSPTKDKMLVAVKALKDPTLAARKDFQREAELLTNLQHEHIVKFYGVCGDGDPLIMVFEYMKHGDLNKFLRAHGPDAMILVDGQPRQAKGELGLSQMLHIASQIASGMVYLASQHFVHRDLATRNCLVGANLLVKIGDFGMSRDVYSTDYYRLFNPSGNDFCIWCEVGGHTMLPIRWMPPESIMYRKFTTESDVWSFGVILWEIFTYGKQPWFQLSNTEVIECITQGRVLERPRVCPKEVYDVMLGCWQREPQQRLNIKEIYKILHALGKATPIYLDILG
T4 sequence (P35916 25-1363): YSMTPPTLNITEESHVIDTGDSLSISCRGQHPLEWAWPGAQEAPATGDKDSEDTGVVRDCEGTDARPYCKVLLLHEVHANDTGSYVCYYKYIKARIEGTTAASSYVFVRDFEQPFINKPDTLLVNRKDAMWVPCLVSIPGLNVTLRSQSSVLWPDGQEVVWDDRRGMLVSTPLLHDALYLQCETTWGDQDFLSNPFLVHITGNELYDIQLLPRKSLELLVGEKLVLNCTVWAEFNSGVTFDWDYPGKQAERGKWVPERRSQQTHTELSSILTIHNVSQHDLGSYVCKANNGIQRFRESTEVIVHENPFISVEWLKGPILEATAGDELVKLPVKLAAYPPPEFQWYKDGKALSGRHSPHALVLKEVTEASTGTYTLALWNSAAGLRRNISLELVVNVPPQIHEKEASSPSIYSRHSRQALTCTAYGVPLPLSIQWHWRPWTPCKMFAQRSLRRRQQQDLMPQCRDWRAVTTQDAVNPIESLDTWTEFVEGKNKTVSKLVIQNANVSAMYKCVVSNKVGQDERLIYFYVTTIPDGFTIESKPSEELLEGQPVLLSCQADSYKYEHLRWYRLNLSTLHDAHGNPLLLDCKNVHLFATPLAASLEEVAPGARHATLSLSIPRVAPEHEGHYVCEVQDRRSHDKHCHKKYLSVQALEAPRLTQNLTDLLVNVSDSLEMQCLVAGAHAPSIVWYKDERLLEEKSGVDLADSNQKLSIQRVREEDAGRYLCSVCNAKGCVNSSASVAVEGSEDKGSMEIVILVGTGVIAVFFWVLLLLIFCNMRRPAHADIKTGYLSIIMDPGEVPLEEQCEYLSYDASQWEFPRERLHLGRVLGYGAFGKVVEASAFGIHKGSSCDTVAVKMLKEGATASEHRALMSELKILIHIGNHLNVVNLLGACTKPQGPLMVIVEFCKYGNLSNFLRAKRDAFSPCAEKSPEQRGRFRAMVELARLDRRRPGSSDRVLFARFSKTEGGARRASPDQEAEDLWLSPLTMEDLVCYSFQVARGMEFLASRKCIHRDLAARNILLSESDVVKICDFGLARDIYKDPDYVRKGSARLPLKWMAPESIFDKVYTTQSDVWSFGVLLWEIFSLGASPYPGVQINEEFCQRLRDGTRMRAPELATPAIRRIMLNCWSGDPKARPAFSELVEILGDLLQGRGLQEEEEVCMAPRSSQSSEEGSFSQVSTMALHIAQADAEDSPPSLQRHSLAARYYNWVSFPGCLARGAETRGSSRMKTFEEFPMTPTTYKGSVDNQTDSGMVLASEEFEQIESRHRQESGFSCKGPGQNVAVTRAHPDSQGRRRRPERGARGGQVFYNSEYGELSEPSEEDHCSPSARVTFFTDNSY
T5 sequence (P24723 whole entry): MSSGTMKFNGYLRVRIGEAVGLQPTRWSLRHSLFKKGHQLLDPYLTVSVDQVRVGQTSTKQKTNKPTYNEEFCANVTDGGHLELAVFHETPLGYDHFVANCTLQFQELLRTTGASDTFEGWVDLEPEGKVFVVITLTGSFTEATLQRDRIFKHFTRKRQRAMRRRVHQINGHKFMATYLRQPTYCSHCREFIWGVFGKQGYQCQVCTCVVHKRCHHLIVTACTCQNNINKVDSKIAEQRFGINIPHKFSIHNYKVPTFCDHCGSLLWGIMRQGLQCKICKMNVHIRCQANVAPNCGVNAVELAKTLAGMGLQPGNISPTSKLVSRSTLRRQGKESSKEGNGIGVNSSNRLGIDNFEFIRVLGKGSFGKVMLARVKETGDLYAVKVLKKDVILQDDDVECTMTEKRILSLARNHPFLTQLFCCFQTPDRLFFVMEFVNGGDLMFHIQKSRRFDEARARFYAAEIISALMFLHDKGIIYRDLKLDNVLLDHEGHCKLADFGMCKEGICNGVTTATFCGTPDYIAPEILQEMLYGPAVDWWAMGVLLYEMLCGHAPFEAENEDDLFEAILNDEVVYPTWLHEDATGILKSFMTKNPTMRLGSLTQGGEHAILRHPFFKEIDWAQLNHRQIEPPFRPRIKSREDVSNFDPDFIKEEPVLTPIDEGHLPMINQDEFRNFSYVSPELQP

Take `CNc1nc(Nc2ccc(C(=O)N3CCOCC3)cc2OC)nc2[nH]cc(C#N)c12` [Example 1, 2-((2-methoxy-4-(morpholine-4-carbonyl)phenyl)amino)-4-(methylamino)-7H-pyrrolo[2,3-d]pyrimidine-5-carbonitrile]: the remaining binding at 1 µM stood at 60% in assay [1]; 79% in assay [2]; 57% in assay [3]; 100% in assay [4]; 93% in assay [5]; 13% in assay [6]. The same compound gave a remaining binding at 1 µM in assay [7] of 92%.

`CC1(Nc2nc(Nc3cnn([C@H]4CCN(C5COC5)C[C@@H]4F)c3Cl)nc3[nH]cc(C#N)c23)CC1` [Example 52, 2-((5-chloro-1-((3S,4S)-3-fluoro-1-(oxetane-3-yl)piperidine-4-yl)-1H-pyrazole-4-yl)amino)((1-methylcyclopropyl)amino)-7H-pyrrolo[2,3-d]pyrimidine-5-carbonitrile]: the remaining binding at 1 µM is 30% in assay [1]; 87% in assay [2]; 3.4% in assay [3]; 0.6% in assay [4]; 100% in assay [5]; 1.2% in assay [6]. This compound also gave a remaining binding at 1 µM in assay [7] of 0.1%.

For the compound `CCNc1nc(Nc2ccc(C(=O)N3CCC(N4CCOCC4)CC3)cc2OC)nc2[nH]cc(C(F)(F)F)c12` [Example 104, (4-((4-(ethylamino)-5-(trifluoromethyl)-7H-pyrrolo[2,3-d]pyrimidine-2-yl)amino)-3-methoxyphenyl)(4-morpholinopiperidine-1-yl)methanone], the remaining binding at 1 µM worked out at 100% in assay [1]; 97% in assay [2]; 93% in assay [3]; 97% in assay [4]; 100% in assay [5]; 15% in assay [6]. The remaining binding at 1 µM in assay [7] stood at 21%.
